# In ChEMBL document CHEMBL3758152, “11-Hydroxylation of Protoberberine by the Novel Berberine-Utilizing Aerobic Bacterium Sphingobium sp. Strain BD3100” (2015):
# Activity calls are given as the source filed them. The rule behind the calls is not given here.
# Assays:
# Staphylococcus aureus [1] = assay: Antibacterial activity against Staphylococcus aureus H209P at 250 nmol/disk after 12 hrs by paper disk method; assay type: functional, organism-based
# Staphylococcus aureus [2] = assay: Antibacterial activity against Staphylococcus aureus H209P at 125 nmol/disk after 12 hrs by paper disk method; assay type: functional
SMILES,Activity (Staphylococcus aureus [1]),diameter of the inhibition zone (DIZ) (Staphylococcus aureus [2])
COc1c(O)cc2cc3[n+](cc2c1OC)CCc1cc2c(cc1-3)OCO2,inactive,
COc1cc2c(cc1OC)-c1cc3cc(O)c(OC)c(OC)c3c[n+]1CC2,inactive,
COc1ccc2cc3[n+](cc2c1OC)CCc1cc2c(cc1-3)OCO2 [BERBERINE],,12 mm
COc1c(O)cc2cc3[n+](cc2c1OC)CCc1cc(O)c(O)cc1-3,inactive,
